Earlier results on one compound are cited in patent US20260053818A1, “PHARMACEUTICAL FORMULATION FOR THE TREATMENT OF INFLAMMATORY CHANGES TO THE RECTUM” (Dr. Falk Pharma GmbH, priority 2015, published 2026).

Converted amounts (≈) assume the structure as drawn.

For this data set the following is noted: Merck Index.

With `CCCC1O[C@@H]2C[C@H]3[C@@H]4CCC5=CC(=O)C=C[C@]5(C)[C@H]4[C@@H](O)C[C@]3(C)[C@]2(C(=O)CO)O1` (stereo partly shown) [budesonide], the solubility in water is 14 µg/mL (≈ 32.5 µM).
